This is an account of results in patent US9700552B2, “Pharmaceutical compositions for treatment of addiction” (priority 2008, dated 2017).

Data set [1] can be described thus: Solubility of naltrexone in adhesive matrix. The data set is classed as physicochemical. From the text:
[…]. Adhesive matrices having such Hildebrand solubility parameters are typically, although not necessarily polyacrylate copolymers. […].

For data set [2] the following is noted: in vivo, cited from earlier work.
The conditions of data set [3]: in vivo; cited from earlier work.

Molecules are shown by their SMILES. Like-named read-outs stand apart in the source and are kept apart here.

With `O=C1CC[C@@]2(O)[C@H]3Cc4ccc(O)c5c4[C@@]2(CCN3CC2CC2)[C@H]1O5` [naltrexone], the “solubility of naltrexone in adhesive” value is recorded as 5.851 g/100 g of polymer in data set [1] (in DURO-TAK® 87-900A) and 3.067 g/100 g of polymer in data set [1] (in DURO-TAK® 87-2510). In addition, the safety statement result was “major liver toxin” in data set [2]; “very few and minor side effects” in data set [2] (listed as Naltrexone).

Consider `Oc1ccc2c3c1O[C@H]1[C@H](O)CC[C@@]4(O)[C@@H](C2)N(CC2CC2)CC[C@]314` [6-β-naltrexol], for which, in data set [3], the mean elimination half-life result was “thirteen”.
